# Key:
# Type in all cases: cell-based
# [1] = test system: NHDF cells (normal human dermal fibroblasts); test: MTT cell proliferation assay, NHDF cells; conditions: 72 h, non-tumoral cells, read-out: Estimated IC50, NHDF
# [2] = test system: PNT1A (normal prostate cells); test: MTT cell proliferation assay, PNT1A cells; conditions: 72 h, non-tumoral cells, read-out: Estimated IC50, PNT1A
# [3] = test system: N27 (rat dopaminergic neuronal cells); test: MTT cell proliferation assay, N27 cells; conditions: 72 h, non-tumoral cells, read-out: Estimated IC50, N27
# [4] = test system: LNCaP cells (androgen-dependent prostatic cancer); test: MTT cell proliferation assay, LNCaP cells; conditions: 72 h
# [5] = test system: MCF-7 cells (estrogen-responsive breast cancer cells); test: MTT cell proliferation assay, MCF-7 cells; conditions: 72 h
# [6] = test system: all cell lines (NHDF, PNT1A, N27, LNCaP, PC-3, MCF-7); test: MTT preliminary screening, all cell lines taken together; conditions: 50 µM, 72 h
# Method: LNCaP, PC-3, MCF-7, PNT1A, N27, and NHDF cells were obtained from the American Type Culture Collection (ATCC; Manassas, VA, USA) and were cultured in 75 cm^2 culture flasks at 37 °C in a humidified air incubator with 5% CO2. LNCaP, PC-3, PNT1A, and N27 cells, respectively, were cultured in RPMI 1640 medium (Sigma-Aldrich, Inc. St. Louis, MO, USA) with 10% fetal bovine serum (FBS; Sigma-Aldrich, Inc. St. Louis, MO, USA) and 1% of the antibiotic mixture of 10,000 U/mL penicillin G and […] streptomycin (Sp, Sigma-Aldrich, Inc. St. Louis, MO, USA). MCF-7 cells were cultured in DMEM medium (Sigma-Aldrich, Inc. St. Louis, MO, USA) supplemented with 10% fetal bovine serum (FBS; Sigma-Aldrich, Inc. St. Louis, MO, USA) and 1% antibiotic/antimycotic (10,000 U/mL penicillin G, […] streptomycin, and 25 µg/mL amphotericin B: Ab, Sigma-Aldrich, Inc. St. Louis, MO, USA). Finally, NHDF cells were cultured in RPMI 1640 medium supplemented with 10% FBS, 2 mM L-glutamine, 10 mM HEPES, 1 mM sodium pyruvate, and 1% of the antibiotic/antimycotic Ab, and these cells were used in passages 10th to 14th. For all cell types, the medium was renewed every 2 days until cells nearly reached the confluence state. When cells reach approximately 90–95% confluence, they are gently detached by trypsinization (trypsin-EDTA solution: 0.125 g/L of trypsin and 0.02 g/L of EDTA). Before each experiment, viable cells were counted in a Neubauer chamber by a trypan-blue exclusion assay and adequately diluted in the appropriate complete cell culture medium.
# All tested compounds were dissolved in dimethyl sulfoxide (DMSO; Sigma-Aldrich, Inc. St. Louis, MO, USA) at a concentration of 10 mM and stored at 4 °C. From the mother-solutions, the diluted solutions of the compounds, in different concentrations, were prepared in the respective complete culture medium before each experiment.
# After reaching a confluence state, cells were trypsinized and counted by the trypan-blue exclusion assay and then seeded with an initial density of 2 × 10^4 cells/mL in 96-well culture plates (Nunc, Apogent, Denmark) and left to adhere and grow for 48 h. Subsequently, the medium was removed, and the cells were treated with compound solutions (10 and 50 µM for preliminary studies and 0.01, 0.1, 1, 10, 50, and 100 µM for concentration-response studies) in complete culture medium for 72 h. 5-Fluorouracil (5-FU) was used as a positive control, and untreated cells were used as the negative control. Compounds leading to cell proliferation relative to control clearly below 50%, at 10 µM, or clearly below 25%, at 50 µM, in the screening studies were selected to concentration-response studies in tumoral cell lines. Each experiment was performed in quadruplicate and independently at least two times. The in vitro antiproliferative effects were evaluated by the MTT assay (Sigma-Aldrich, Inc. St. Louis, MO, USA). After the incubation period, the medium was removed, and 100 µL of phosphate buffer saline (PBS, NaCl 137 mM; KCl 2.7 mM; Na2HPO4 10 mM; and KH2PO4 1.8 mM in deionized water with a pH adjusted to 7.4) were used to wash the cells. Then, 100 µL of the MTT solution (5 mg/mL) was prepared in the appropriate serum-free medium and added to each well, followed by incubation for 4 h at 37 °C. Hereafter, the MTT containing medium was removed, and the formazan crystals were dissolved in DMSO. Then, the absorbance was measured at 570 nm using a xMarkTM microplate spectrophotometer from BIO-RAD Laboratories. Cell viability values were expressed as percentages relative to the negative control.
# MCF-7 cells [7] = test: PI incorporation (propidium iodide staining); conditions: 48 h
# Method: After 48 h of being seeded at the same conditions explained in the previous (Section 2.2.4), MCF-7 cells were treated with the steroidal derivatives 19 and 5-FU at 1 and 10 µM and maintained in culture for 48 h. Untreated cells were also used as a negative control. Subsequently, cells were incubated with 20 µL/per well of a propidium iodide solution (PI; 1 mg/mL in PBS; Sigma-Aldrich Co. LLC) for 25 min at 37 °C. Then, the medium was removed, and the cells were fixed with 10% formalin for 15 min at room temperature. Cells were washed three times with PBS and incubated with 30 µL/per coverslip of Hoechst-33342 (1:500) for 10 min. After incubation, cells were washed three times with PBS. Coverslips were mounted on a drop of the fluoroshield mounting medium on a microscope slide, left to dry for 24 h, and then visualized in a Zeiss Axio Imager A1 microscope with the 40× objective.
# MCF-7 cells [8] = test: Nuclear area analysis with ImageJ (Hoechst 33342-stained nuclei); conditions: MCF-7, 1 and 10 µM, 48 h
# From the text: (§1) The nuclear measurements were achieved by converting 16-bit photomicrographs of Hoechst 33342-stained nuclei in different studied conditions into 8-bit images. Then, these imagens were autothresholded to binary photos using the default “Make binary” function of ImageJ (v. 1.49) software (NIH Image, Bethesda, MD, USA). Cell nuclei that are touching were separated and fragments were discarded based on area through “Analyze Particle” function. This function also provides several other information, such as nuclear area (NA), circumference, and form factor [26]. Furthermore, the “Nearest Neighbor Distance” (NND) was determined. This function allows measuring the distance between each cell nucleus and the nearest ones, providing information about cell distribution.
# MCF-7 cells [9] = test: Nearest neighbor distance analysis with ImageJ; conditions: MCF-7, 1 and 10 µM, 48 h
# From the text: as §1
substance,measurement,setting,value
"(E)-16-(2,3-Dichlorobenzylidene)-3-hydroxy-5α ,6α -epoxy-10,13-dimethyl-1,3,4,7,8,9,10,11,12,13,15,16-dodecahydro-2H-cyclopenta[α ]phenanthren-17(14H)-one [Compound 19]",IC50,[1],18.7 µM
same,IC50,[2],12.8 µM
same,IC50,[3],13.3 µM
same,effect on LNCaP cell proliferation,"[4]; LNCaP, 10 µM",no relevant effects
same,decrease in LNCaP cell proliferation,"[4]; LNCaP, 50 µM",higher than 75%
same,IC50,"[4]; MTT, tumoral cells, read-out: Estimated IC50, LNCaP",12.8 µM
same,decrease in cell proliferation,"[5]; MCF-7, 10 µM",around 75%
same,cell proliferation relative to the control,"[5]; MCF-7, 50 µM",~0%
same,decrease in cell proliferation,"[5]; MCF-7, 50 µM",~100%
same,IC50,"[5]; MTT, tumoral cells, read-out: Estimated IC50, MCF-7",3.47 µM
same,relative cell proliferation,[6],≤ 50%
same,PI-positive cells relative to the negative control,"MCF-7 cells [7]; MCF-7, 1 µM",no significant effect
same,PI-positive cells relative to the negative control,"MCF-7 cells [7]; MCF-7, 10 µM",significantly increase
same,percentage of PI incorporation compared with the positive control (5-FU),"MCF-7 cells [7]; MCF-7, 10 µM",about three times
same,nuclear area (NA) relative to the control,MCF-7 cells [8],decreased significantly
same,"cell distribution (nearest neighbor distance, NND)",MCF-7 cells [9],more random distribution with nuclei more spaced

# From publication PMC10045663, “Synthesis, In Vitro Biological Evaluation of Antiproliferative and Neuroprotective Effects and In Silico Studies of Novel 16E-Arylidene-5α,6α-epoxyepiandrosterone Derivatives” (Biomedicines, 2023)
